Legend:
[1] = target: Sigma intracellular receptor 2 (Homo sapiens, UniProt Q5BJF2); assay: GPCRScan assay: inhibition of Sigma 2; set-up: radioligand conc. used [nm] 5.0, parental cells HEKT
[2] = target: Bone morphogenetic protein receptor type-2 (Homo sapiens) (UniProt Q13873); settings: Compound concentration 1000.0 nM
[3] = target: Calcium/calmodulin-dependent protein kinase type IV (Homo sapiens) (UniProt Q16566); settings: Compound concentration 1000.0 nM
[4] = target: Cyclin-dependent kinase 4 (Homo sapiens) (UniProt P11802); settings: Compound concentration 1000.0 nM
[5] = target: Cyclin-dependent kinase 5 (Homo sapiens) (UniProt Q00535); settings: Compound concentration 1000.0 nM
[6] = target: Casein kinase I isoform alpha (Homo sapiens) (UniProt P48729); settings: Compound concentration 1000.0 nM
[7] = target: Death-associated protein kinase 3 (Homo sapiens) (UniProt O43293); settings: Compound concentration 1000.0 nM
Sequence of Death-associated protein kinase 3 (Homo sapiens) (O43293 whole entry, looked up): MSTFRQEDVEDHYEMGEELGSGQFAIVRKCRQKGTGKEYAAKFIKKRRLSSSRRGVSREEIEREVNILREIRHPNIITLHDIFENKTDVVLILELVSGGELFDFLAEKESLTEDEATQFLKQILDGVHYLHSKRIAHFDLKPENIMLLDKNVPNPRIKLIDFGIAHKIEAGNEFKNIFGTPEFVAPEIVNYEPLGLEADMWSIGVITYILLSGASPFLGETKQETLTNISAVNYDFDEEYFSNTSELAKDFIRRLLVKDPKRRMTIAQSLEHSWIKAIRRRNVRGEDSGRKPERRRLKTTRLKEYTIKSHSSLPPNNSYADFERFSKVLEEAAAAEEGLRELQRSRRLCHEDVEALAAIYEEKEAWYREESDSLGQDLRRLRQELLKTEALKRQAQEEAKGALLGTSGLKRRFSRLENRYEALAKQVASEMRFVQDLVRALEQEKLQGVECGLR

[8] = tested on: Epidermal growth factor receptor (Homo sapiens), P00533 [G719C]; settings: Compound concentration 1000.0 nM
[9] = target: Mitogen-activated protein kinase 6 (Homo sapiens) (UniProt Q16659); settings: Compound concentration 1000.0 nM
Sequence of Mitogen-activated protein kinase 6 (Homo sapiens) (Q16659 whole entry): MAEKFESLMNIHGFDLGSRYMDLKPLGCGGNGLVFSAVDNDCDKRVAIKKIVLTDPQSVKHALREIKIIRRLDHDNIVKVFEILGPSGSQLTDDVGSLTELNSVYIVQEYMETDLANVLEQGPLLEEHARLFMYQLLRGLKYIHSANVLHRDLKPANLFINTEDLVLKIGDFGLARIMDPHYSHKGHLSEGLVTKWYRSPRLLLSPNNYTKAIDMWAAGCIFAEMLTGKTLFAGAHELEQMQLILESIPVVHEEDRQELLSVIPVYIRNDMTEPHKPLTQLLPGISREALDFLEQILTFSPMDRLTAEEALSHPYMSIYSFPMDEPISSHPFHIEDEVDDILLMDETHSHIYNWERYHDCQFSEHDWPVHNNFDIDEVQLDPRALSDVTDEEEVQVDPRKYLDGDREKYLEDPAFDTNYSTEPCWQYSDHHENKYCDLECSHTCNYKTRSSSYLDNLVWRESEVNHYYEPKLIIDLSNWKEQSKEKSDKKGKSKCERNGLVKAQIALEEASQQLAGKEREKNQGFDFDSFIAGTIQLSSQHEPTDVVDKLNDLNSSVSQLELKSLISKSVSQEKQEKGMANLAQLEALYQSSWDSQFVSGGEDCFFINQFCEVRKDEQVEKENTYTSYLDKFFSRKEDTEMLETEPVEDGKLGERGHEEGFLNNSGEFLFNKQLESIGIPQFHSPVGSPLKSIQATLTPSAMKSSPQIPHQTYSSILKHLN

[10] = target: Tyrosine-protein kinase Fyn (Homo sapiens) (UniProt P06241); settings: Compound concentration 1000.0 nM
Sequence of Tyrosine-protein kinase Fyn (Homo sapiens) (P06241 2-537 limits assumed): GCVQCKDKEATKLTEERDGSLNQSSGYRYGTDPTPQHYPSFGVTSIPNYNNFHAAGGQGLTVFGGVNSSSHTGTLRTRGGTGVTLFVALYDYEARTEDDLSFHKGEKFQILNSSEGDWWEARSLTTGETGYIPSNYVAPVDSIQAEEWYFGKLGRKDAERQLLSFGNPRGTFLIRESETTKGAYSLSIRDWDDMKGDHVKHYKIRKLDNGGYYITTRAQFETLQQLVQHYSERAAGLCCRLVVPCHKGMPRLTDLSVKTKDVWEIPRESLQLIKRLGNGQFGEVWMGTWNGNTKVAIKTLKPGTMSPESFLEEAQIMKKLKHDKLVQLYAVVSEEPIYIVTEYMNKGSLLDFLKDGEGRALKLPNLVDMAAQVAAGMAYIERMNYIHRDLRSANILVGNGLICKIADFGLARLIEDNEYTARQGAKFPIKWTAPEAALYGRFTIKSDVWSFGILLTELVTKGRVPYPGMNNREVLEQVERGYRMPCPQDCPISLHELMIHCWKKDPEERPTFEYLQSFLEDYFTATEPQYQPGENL

[11] = target: Interleukin-1 receptor-associated kinase 1 (Homo sapiens) (UniProt P51617); settings: Compound concentration 1000.0 nM
[12] = target: Mitogen-activated protein kinase 8 (Homo sapiens) (UniProt P45983); settings: Compound concentration 1000.0 nM
[13] = target: Mitogen-activated protein kinase 9 (Homo sapiens) (UniProt P45984); settings: Compound concentration 1000.0 nM
[14] = target: Serine/threonine-protein kinase 10 (Homo sapiens) (UniProt O94804); settings: Compound concentration 1000.0 nM
[15] = target: Mitogen-activated protein kinase kinase kinase kinase 2 (Homo sapiens) (UniProt Q12851); settings: Compound concentration 1000.0 nM
[16] = target: MAP kinase-activated protein kinase 2 (Homo sapiens) (UniProt P49137); settings: Compound concentration 1000.0 nM
[17] = target: Myosin light chain kinase 2, skeletal/cardiac muscle (Homo sapiens) (UniProt Q9H1R3); settings: Compound concentration 1000.0 nM
[18] = target: Serine/threonine-protein kinase Nek2 (Homo sapiens) (UniProt P51955); settings: Compound concentration 1000.0 nM
[19] = target: Calcium-dependent protein kinase 1 (Plasmodium falciparum) (UniProt P62344); settings: Compound concentration 1000.0 nM
[20] = target: Phosphatidylinositol 4-phosphate 3-kinase C2 domain-containing subunit beta (Homo sapiens) (UniProt O00750); settings: Compound concentration 1000.0 nM
[21] = tested on: Phosphatidylinositol 4,5-bisphosphate 3-kinase catalytic subunit alpha isoform (Homo sapiens), P42336 [C420R]; settings: Compound concentration 1000.0 nM
[22] = tested on: Phosphatidylinositol 4,5-bisphosphate 3-kinase catalytic subunit alpha isoform (Homo sapiens), P42336 [E542K]; settings: Compound concentration 1000.0 nM
[23] = tested on: Phosphatidylinositol 4,5-bisphosphate 3-kinase catalytic subunit alpha isoform (Homo sapiens), P42336 [H1047L]; settings: Compound concentration 1000.0 nM
[24] = tested on: Phosphatidylinositol 4,5-bisphosphate 3-kinase catalytic subunit alpha isoform (Homo sapiens), P42336 [H1047Y]; settings: Compound concentration 1000.0 nM
[25] = target: Phosphatidylinositol 4-kinase beta (Homo sapiens) (UniProt Q9UBF8); settings: Compound concentration 1000.0 nM
Sequence of Phosphatidylinositol 4-kinase beta (Homo sapiens) (Q9UBF8 2-816 limits assumed): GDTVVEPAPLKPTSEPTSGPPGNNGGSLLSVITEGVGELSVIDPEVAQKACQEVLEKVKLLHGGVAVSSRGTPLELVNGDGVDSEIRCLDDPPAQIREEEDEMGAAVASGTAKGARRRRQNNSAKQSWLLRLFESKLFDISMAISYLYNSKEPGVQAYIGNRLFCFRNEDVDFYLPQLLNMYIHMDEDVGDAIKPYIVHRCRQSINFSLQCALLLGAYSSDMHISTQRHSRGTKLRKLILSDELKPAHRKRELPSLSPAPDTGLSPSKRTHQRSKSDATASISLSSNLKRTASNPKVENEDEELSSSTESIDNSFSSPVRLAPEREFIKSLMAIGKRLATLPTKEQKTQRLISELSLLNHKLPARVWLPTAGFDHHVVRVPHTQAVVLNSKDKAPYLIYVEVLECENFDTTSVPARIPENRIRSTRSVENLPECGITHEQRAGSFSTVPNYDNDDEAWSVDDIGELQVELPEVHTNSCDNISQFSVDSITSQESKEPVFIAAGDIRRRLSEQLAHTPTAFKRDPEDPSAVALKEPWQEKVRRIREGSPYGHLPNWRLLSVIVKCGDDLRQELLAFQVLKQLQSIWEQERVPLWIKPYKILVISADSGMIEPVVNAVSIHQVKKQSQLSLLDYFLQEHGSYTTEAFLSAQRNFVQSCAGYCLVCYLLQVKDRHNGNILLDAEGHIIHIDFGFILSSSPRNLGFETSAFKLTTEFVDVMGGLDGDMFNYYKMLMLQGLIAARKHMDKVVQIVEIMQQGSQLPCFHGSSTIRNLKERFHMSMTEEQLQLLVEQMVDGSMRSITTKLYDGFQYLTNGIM

[26] = target: 1-phosphatidylinositol 3-phosphate 5-kinase (Homo sapiens) (UniProt Q9Y2I7); settings: Compound concentration 1000.0 nM
Sequence of 1-phosphatidylinositol 3-phosphate 5-kinase (Homo sapiens) (Q9Y2I7 whole entry): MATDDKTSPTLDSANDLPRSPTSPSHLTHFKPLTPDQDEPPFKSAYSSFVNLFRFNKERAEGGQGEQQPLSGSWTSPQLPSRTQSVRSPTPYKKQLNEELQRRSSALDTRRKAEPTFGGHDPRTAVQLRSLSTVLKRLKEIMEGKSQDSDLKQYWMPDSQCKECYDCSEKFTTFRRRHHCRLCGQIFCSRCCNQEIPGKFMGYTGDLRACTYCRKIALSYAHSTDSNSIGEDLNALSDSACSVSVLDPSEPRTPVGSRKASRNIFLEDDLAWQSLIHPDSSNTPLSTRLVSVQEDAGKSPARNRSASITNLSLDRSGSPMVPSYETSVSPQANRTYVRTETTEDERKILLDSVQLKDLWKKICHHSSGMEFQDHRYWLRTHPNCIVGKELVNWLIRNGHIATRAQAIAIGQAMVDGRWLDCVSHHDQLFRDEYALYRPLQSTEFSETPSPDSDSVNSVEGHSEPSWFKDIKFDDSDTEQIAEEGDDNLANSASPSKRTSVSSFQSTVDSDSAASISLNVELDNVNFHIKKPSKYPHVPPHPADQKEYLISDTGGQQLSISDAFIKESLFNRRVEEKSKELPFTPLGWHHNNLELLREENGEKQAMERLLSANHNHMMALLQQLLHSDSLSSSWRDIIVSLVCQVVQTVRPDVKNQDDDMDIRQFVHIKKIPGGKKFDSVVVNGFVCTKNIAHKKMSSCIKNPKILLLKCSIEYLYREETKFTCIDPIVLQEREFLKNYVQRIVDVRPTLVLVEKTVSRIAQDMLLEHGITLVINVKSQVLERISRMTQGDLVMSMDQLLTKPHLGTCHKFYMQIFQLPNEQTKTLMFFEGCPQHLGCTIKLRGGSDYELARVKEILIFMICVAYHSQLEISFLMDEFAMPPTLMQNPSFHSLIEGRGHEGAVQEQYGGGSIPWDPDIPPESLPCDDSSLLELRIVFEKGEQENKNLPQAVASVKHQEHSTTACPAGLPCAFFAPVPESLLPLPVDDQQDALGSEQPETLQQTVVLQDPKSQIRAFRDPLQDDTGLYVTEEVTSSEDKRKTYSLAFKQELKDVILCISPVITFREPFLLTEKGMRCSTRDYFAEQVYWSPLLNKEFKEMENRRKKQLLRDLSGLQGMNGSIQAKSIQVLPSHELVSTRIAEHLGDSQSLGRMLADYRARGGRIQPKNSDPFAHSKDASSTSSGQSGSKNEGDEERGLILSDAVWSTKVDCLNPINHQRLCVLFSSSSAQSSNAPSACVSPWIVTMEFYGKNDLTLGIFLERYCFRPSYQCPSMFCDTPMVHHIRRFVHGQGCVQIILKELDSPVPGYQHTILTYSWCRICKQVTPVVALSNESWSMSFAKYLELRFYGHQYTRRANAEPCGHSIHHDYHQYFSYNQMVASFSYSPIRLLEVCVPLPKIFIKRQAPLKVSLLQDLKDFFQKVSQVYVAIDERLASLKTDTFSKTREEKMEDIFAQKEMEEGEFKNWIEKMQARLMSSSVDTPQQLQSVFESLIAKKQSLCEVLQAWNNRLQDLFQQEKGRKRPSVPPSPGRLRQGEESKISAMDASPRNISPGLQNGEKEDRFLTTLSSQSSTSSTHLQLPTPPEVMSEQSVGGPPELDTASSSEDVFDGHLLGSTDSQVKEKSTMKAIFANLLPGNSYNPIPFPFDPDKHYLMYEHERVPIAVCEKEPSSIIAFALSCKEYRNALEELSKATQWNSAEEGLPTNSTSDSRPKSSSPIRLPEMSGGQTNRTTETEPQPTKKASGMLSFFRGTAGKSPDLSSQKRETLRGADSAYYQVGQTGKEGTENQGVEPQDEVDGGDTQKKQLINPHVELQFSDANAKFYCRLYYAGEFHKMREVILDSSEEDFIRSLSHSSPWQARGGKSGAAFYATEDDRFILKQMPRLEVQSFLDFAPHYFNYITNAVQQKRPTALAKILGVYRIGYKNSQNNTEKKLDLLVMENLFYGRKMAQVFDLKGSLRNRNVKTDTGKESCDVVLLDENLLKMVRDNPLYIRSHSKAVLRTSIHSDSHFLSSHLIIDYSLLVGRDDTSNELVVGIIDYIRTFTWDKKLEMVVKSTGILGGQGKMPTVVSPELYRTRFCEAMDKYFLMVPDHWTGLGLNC

[27] = target: Phosphatidylinositol 4-phosphate 5-kinase type-1 alpha (Homo sapiens) (UniProt Q99755); settings: Compound concentration 1000.0 nM
[28] = target: Phosphatidylinositol 5-phosphate 4-kinase type-2 beta (Homo sapiens) (UniProt P78356); settings: Compound concentration 1000.0 nM
Sequence of Phosphatidylinositol 5-phosphate 4-kinase type-2 beta (Homo sapiens) (P78356 whole entry): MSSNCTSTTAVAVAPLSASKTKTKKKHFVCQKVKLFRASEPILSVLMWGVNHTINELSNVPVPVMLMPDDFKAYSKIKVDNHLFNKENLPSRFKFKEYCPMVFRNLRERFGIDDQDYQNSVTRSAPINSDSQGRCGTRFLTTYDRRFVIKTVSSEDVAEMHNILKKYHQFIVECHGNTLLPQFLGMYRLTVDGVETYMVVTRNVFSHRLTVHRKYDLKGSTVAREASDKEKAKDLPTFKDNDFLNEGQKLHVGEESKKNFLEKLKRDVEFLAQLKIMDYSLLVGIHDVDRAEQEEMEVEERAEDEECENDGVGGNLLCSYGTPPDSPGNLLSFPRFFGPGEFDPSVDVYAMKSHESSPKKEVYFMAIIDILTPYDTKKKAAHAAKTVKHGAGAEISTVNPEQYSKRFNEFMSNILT

[29] = target: Protein kinase C iota type (Homo sapiens) (UniProt P41743); settings: Compound concentration 1000.0 nM
[30] = target: cGMP-dependent protein kinase 1 (Homo sapiens) (UniProt Q13976); settings: Compound concentration 1000.0 nM
[31] = target: Serine/threonine-protein kinase RIO3 (Homo sapiens) (UniProt O14730); settings: Compound concentration 1000.0 nM
[32] = target: Ribosomal protein S6 kinase alpha-4 (Homo sapiens) (UniProt O75676); settings: Compound concentration 1000.0 nM
[33] = target: Ribosomal protein S6 kinase alpha-3 (Homo sapiens) (UniProt P51812); settings: Compound concentration 1000.0 nM
[34] = target: Serine/threonine-protein kinase SIK2 (Homo sapiens) (UniProt Q9H0K1); settings: Compound concentration 1000.0 nM
[35] = target: Serine/threonine-protein kinase TBK1 (Homo sapiens) (UniProt Q9UHD2); settings: Compound concentration 1000.0 nM
[36] = target: TGF-beta receptor type-2 (Homo sapiens) (UniProt P37173); settings: Compound concentration 1000.0 nM
[37] = target: Activated CDC42 kinase 1 (Homo sapiens) (UniProt Q07912); settings: Compound concentration 1000.0 nM
[38] = target: NT-3 growth factor receptor (Homo sapiens) (UniProt Q16288); settings: Compound concentration 1000.0 nM
[39] = target: Dual specificity protein kinase TTK (Homo sapiens) (UniProt P33981); settings: Compound concentration 1000.0 nM
[40] = target: Serine/threonine-protein kinase 32B (Homo sapiens) (UniProt Q9NY57); settings: Compound concentration 1000.0 nM
[41] = target: Mitogen-activated protein kinase kinase kinase 19 (Homo sapiens) (UniProt Q56UN5); settings: Compound concentration 1000.0 nM
[42] = target: Sodium-dependent serotonin transporter (Homo sapiens) (UniProt P31645); settings: Compound concentration 10.0 uM
[43] = target: Histamine H2 receptor (Homo sapiens) (UniProt P25021); settings: Compound concentration 10.0 uM
[44] = target: Beta-1 adrenergic receptor (Homo sapiens) (UniProt P08588); settings: Compound concentration 10.0 uM
[45] = target: Alpha-1D adrenergic receptor (Homo sapiens) (UniProt P25100); settings: Compound concentration 10.0 uM

Compound O=C(Nc1ccc(Oc2ccc(F)cc2)cc1)N1CCc2ncccc2[C@H]1c1ccc(F)cc1 [BAY-897] has a Ki [1] of 676 nM, a residual activity [2] of 96% and a residual activity [3] of 86%. For the same compound, the residual activity [4] was 94%, the residual activity [5] was 100% and the residual activity [6] was 97%. It also gave a residual activity [7] of 100%, a residual activity [8] of 73% and a residual activity [9] of 98%. For the same compound, the residual activity [10] was 89%, the residual activity [11] was 88% and the residual activity [12] was 91%. It also gave a residual activity [13] of 88%, a residual activity [14] of 100% and a residual activity [15] of 95%. The residual activity [16] was 98%, the residual activity [17] was 100% and the residual activity [18] was 93%. It also gave a residual activity [19] of 96%, a residual activity [20] of 96% and a residual activity [21] of 100%. For the same compound, the residual activity [22] was 71%, the residual activity [23] was 85% and the residual activity [24] was 100%. The residual activity [25] was 75%, the residual activity [26] was 95% and the residual activity [27] was 95%. For the same compound, the residual activity [28] was 97%, the residual activity [29] was 100% and the residual activity [30] was 91%. For the same compound, the residual activity [31] was 96%, the residual activity [32] was 73% and the residual activity [33] was 84%. For the same compound, the residual activity [34] was 100%, the residual activity [35] was 81% and the residual activity [36] was 91%. It also gave a residual activity [37] of 99%, a residual activity [38] of 68% and a residual activity [39] of 94%. It also gave a residual activity [40] of 72%, a residual activity [41] of 88% and an inhibition [42] of 21.1%. The inhibition [43] was 7.29%, the inhibition [44] was -7.28% and the inhibition [45] was 34%.
O=C(Nc1cnc(Oc2ccc(F)cc2)nc1)N1CCc2ncccc2[C@@H]1c1ccc(F)cc1 [BAY-899] gave a Ki [1] of 2050 nM, a residual activity [2] of 88% and a residual activity [3] of 97%. It also gave a residual activity [4] of 100%, a residual activity [5] of 100% and a residual activity [6] of 85%. The residual activity [7] was 100%, the residual activity [8] was 76% and the residual activity [9] was 100%. For the same compound, the residual activity [10] was 100%, the residual activity [11] was 88% and the residual activity [12] was 83%. For the same compound, the residual activity [13] was 85%, the residual activity [14] was 94% and the residual activity [15] was 100%. For the same compound, the residual activity [16] was 80%, the residual activity [17] was 90% and the residual activity [18] was 92%. It also gave a residual activity [19] of 95%, a residual activity [20] of 95% and a residual activity [21] of 100%. For the same compound, the residual activity [22] was 81%, the residual activity [23] was 92% and the residual activity [24] was 100%. It also gave a residual activity [25] of 89%, a residual activity [26] of 63% and a residual activity [27] of 100%. The residual activity [28] was 100%, the residual activity [29] was 98% and the residual activity [30] was 89%. For the same compound, the residual activity [31] was 89%, the residual activity [32] was 89% and the residual activity [33] was 97%. The residual activity [34] was 89%, the residual activity [35] was 87% and the residual activity [36] was 100%. For the same compound, the residual activity [37] was 93%, the residual activity [38] was 75% and the residual activity [39] was 86%. The residual activity [40] was 87%, the residual activity [41] was 81% and the inhibition [42] was 25.5%. For the same compound, the inhibition [43] was 2.75%, the inhibition [44] was 11.3% and the inhibition [45] was 8.01%.

Source: ChEMBL document CHEMBL4507317, “Data for DCP probe BAY-899” (2021)
